Molecules are shown by their SMILES.

In general, Kd refers to the equilibrium constant for the complex coming apart.

In the first assay the test system is islets of human T2D organ donors.
Assay: not given
To be noted: acute exposure of the T2D islets; cited from earlier work.
Consider `O=C(CC(CO)N1CCN(c2ccc(OC(F)(F)F)cc2)CC1)Nc1ccc(Cl)cc1` (centres unmarked) [CAS: 2086257-77-2, N-(4-chlorophenyl)-4-hydroxy-3-{4-[4-(trifluoromethoxy)phenyl]piperazin-1-yl}butanamide, reference compound], for which the “glucose-stimulated insulin secretion (GSIS)” value is given as “restored GSIS”.

The next assay deals with T1, recombinant human VDAC1 (hVDAC1) (Homo sapiens, UniProt P21796).
T1 construct: His (N); GST (N); purchased LSBio LS-G25810; host or cells: E. coli
T1 sequence (P21796 whole entry): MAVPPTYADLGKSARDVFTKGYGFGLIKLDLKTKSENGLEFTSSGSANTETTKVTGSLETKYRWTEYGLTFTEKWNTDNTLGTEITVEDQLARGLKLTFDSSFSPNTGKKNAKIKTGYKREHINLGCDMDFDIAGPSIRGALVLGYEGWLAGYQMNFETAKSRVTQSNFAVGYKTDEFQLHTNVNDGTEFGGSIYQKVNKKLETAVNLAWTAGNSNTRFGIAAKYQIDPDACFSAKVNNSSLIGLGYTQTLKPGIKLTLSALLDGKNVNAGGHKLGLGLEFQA
The assay is described as follows: Microscale Thermophoresis (MST) binding assay with labeled VDAC1. To be noted: MST plot of FIG. 1. The text has this:
MicroScale Thermophoresis (MST) is a biophysical technique that measures the strength of interaction (affinity) between two molecules by detecting variations in fluorescence signal as a result of an IR-laser induced temperature change. The range of the variation in the fluorescence signal correlates with the binding of a ligand to a fluorescent target. By that it allows for quantitative analysis of molecular interactions in solution on the microliter scale with high sensitivity.The MST signal is composed of two major factors: The TRIC effect and the thermophoresis. TRIC stands for Temperature-Related Intensity-Change and describes how the fluorescence intensity of a fluorophore depends on the local temperature of the solution. For the vast majority of fluorophores, the fluorescence intensity decreases with increasing temperature. Most importantly, however, the extent of the temperature dependence is strongly related to the chemical environment of the fluorophore. This environment is sensitively affected by the binding of a ligand molecule to the fluorescently labeled target molecule (via conformational changes or ligand-dye proximity). The second component of the MST-signal, the thermophoresis describes the movement of molecules along temperature gradients which results in a quantifiable change of the local concentration of the target molecules. As these target molecules are fluorescently labeled in MST, such concentration changes can be monitored simply by fluorescence measurements. This directed movement of molecules depends on their molecular size, charge, and hydration shell. Binding of a ligand to a target molecule leads to the change of at least one of these parameters and therefore to an altered thermophoretic movement of the target-ligand complex compared to the single molecules alone. In sum, both TRIC and thermophoresis contribute to the overall MST-signal, which is detected by fluorescence measurement. Due to this robust physical principle and direct monitoring, MST can be used for determining the affinity and binding strength of almost any kind of molecular interaction or modification of small molecules, proteins, peptides, DNA, sugars, or molecular complexes.
Reconstituted N-terminal His-GST tagged E. coli recombinant human VDAC1 (hVDAC1) was buffer exchanged into protein labeling buffer due to the primary amine of the Tris lyophilization buffer interferes with NHS-based labeling. The labeling buffer was kept as close to the storage buffer of the target protein as given on the protein data sheet (LSBio LS-G25810). Tris was replaced by HEPES. PLURONIC® F-127 was added to 0.05% in order to enhance protein recovery in the final dye removal step. The total volume of the labeling batch was 100 µL. The labeling time was 30 minutes. The labeling reaction was performed at room temperature. Any unbound or unreacted dye was separated from the labeled protein on a gravity-flow gel-filtration column (GE Healthcare, PD Minitrap G-25, GE28-9180-07). The final target buffer was kept as close to the original protein storage buffer as possible. It contained Tris again instead of HEPES.
The first step of the technical assay establishment was a so-called “noise test”. In this test, the intrinsic MST-noise of the labeled target protein was tested. Subsequently, a reference compound or positive control (CAS number: 2086257-77-2) was characterized to confirm previously reported VDAC1 binding (Zhang et al (2019)). Preserving Insulin Secretion in Diabetes by Inhibiting VDAC1 Overexpression and Surface Translocation in β Cells″. Cell Metabolism 29, 64-77.). In short, serial dilutions of the compound having CAS number: 2086257-77-2 was prepared in a way to match the final buffer conditions in the reaction mix (assay buffer). The highest concentration of ligand was 10.0 mM and the lowest 4.88 µM. A total of 12 dilution steps were prepared. […]
A general note: MST reads how a fluorescent partner responds to local heating, with and without ligand.
Turning to `O=C(CC(CO)N1CC2=C(CN(c3ccc(OC(F)(F)F)cc3)C2)C1)Nc1ccc(Cl)cc1` (centres unmarked) [Example 4, N-(4-chlorophenyl)-4-hydroxy-3-{5-[4-(trifluoromethoxy)phenyl]-1H,2H,3H,4H,5H,6H-pyrrolo[3,4-c]pyrrol-2-yl}butanamide], the “S/N of MST plot” value amounted to 20.1 and the “dFnorm of MST plot” value is 23.9.

The assay is the same for the next values; noted with them: MST, 5 nM labeled VDAC1, 25° C., 12-point dilution 100-0.04 µM; read-out: VDAC1 affinity (KD).
Consider `O=C(CC(CO)N1CCCN(c2ccc(OC(F)(F)F)cc2)CC1)Nc1ccc(Cl)cc1` (centres unmarked) [Example 3, N-(4-chlorophenyl)-4-hydroxy-3-{4-[4-(trifluoromethoxy)phenyl]-1,4-diazepan-1-yl}butanamide], for which the Kd amounted to 5.2 µM.
Regarding `O=C(CC(CO)N1CCN(c2ccc(OC(F)(F)F)cc2)CC1)Nc1ccc(Cl)cc1` (centres unmarked) [CAS: 2086257-77-2, N-(4-chlorophenyl)-4-hydroxy-3-{4-[4-(trifluoromethoxy)phenyl]piperazin-1-yl}butanamide, reference compound], the Kd turned out to be 14 µM.
With `O=C(CC(CCO)N1CCN(c2ccc(OC(F)(F)F)cc2)CC1)Nc1ccc(Cl)cc1` (centres unmarked) [Example 2, N-(4-chlorophenyl)-5-hydroxy-3-{4-[4-(trifluoromethoxy)phenyl]piperazin-1-yl}pentanamide], the Kd amounted to 8.4 µM.
For `O=C(CC(CO)N1CC2CN(c3ccc(OC(F)(F)F)cc3)CC2C1)Nc1ccc(Cl)cc1` (centres unmarked) [Example 9, N-(4-chlorophenyl)-4-hydroxy-3-{5-[4-(trifluoromethoxy)phenyl]-octahydropyrrolo[3,4-c]pyrrol-2-yl}butanamide], the Kd was 11.4 µM.
The same measure, in the same setting: then `O=C(CC(CO)N1CCOC2(CCN(c3ccc(OC(F)(F)F)cc3)C2)C1)Nc1ccc(Cl)cc1` (centres unmarked) [Example 5, N-(4-chlorophenyl)-4-hydroxy-3-{2-[4-(trifluoromethoxy)phenyl]-6-oxa-2,9-diazaspiro[4.5]decan-9-yl}butanamide], with 3.8 µM; and `O=C(CC(CO)N1CCCC2(CCCN(c3ccc(OC(F)(F)F)cc3)C2)C1)Nc1ccc(Cl)cc1` (centres unmarked) [Example 10, N-(4-chlorophenyl)-4-hydroxy-3-{8-[4-(trifluoromethoxy)phenyl]-2,8-diazaspiro[5.5]undecan-2-yl}butanamide], with 1.9 µM.
The same measure, in the same setting: then `O=C(CC(CO)N1CC2=C(CN(c3ccc(OC(F)(F)F)cc3)C2)C1)Nc1ccc(Cl)cc1` (centres unmarked) [Example 4, N-(4-chlorophenyl)-4-hydroxy-3-{5-[4-(trifluoromethoxy)phenyl]-1H,2H,3H,4H,5H,6H-pyrrolo[3,4-c]pyrrol-2-yl}butanamide], with 5.1 µM; and `O=C(CC(CO)N1CCCC2C1CCN2c1ccc(OC(F)(F)F)cc1)Nc1ccc(Cl)cc1` (centres unmarked) [Example 8, N-(4-chlorophenyl)-4-hydroxy-3-{1-[4-(trifluoromethoxy)phenyl]-octahydro-1H-pyrrolo[3,2-b]pyridin-4-yl}butanamide], with 2.8 µM; and `O=C(CC(CO)N1CCCC(C2CN(c3ccc(OC(F)(F)F)cc3)C2)C1)Nc1ccc(Cl)cc1` (centres unmarked) [Example 6, N-(4-chlorophenyl)-4-hydroxy-3-(3-{1-[4-(trifluoromethoxy)phenyl]azetidin-3-yl}piperidin-1-yl)butanamide], with 9.8 µM.
Still for that read-out and setting: then `O=C(CC(CO)N1CC2(CCN(c3ccc(OC(F)(F)F)cc3)C2)C1)Nc1ccc(Cl)cc1` (centres unmarked) [Example 7, N-(4-chlorophenyl)-4-hydroxy-3-{6-[4-(trifluoromethoxy)phenyl]-2,6-diazaspiro[3.4]octan-2-yl}butanamide], with 13.1 µM; and `O=C(NCC(CO)N1CCN(c2ccc(OC(F)(F)F)cc2)CC1)c1ccc(Cl)cc1` (centres unmarked) [Example 1, 4-chloro-N-(3-hydroxy-2-{4-[4-(trifluoromethoxy)phenyl]piperazin-1-yl}propyl)benzamide], with 12 µM.
